Assay results from patent US10857185B2, “Compositions and methods for reprogramming non-neuronal cells into neuron-like cells” (Beihao Stem Cell and Regenerative Medicine Research …, priority 2015, dated 2020).
“Also recorded” adds a separate entry of the source.

Key:
CiNs = assay: Whole-cell patch-clamp recordings of CiNs; assay type: cell-based, mouse; settings: CiNs after re-plating; data not shown
Method: Primary cultures of neurons were prepared from postnatal day 1 wild-type C57 mice. Mice were decapitated, and their brains were removed in pre-cooled physiological saline. The hippocampus was dissected in pre-cooled HBSS (9.5 g/L Hanks' balanced salts, 4.2 mM NaHCO3, 10 mM HEPES, 12 mM MgSO4, 7 g/L glucose, 0.3 g/L bull serum albumin, and 0.5% penicillin/streptomycin, with the pH adjusted to 7.4 with NaOH). Tissues were digested with 5 ml 0.2% trypsin (Gibco, dissolved in digestion solution) for 2-3 min, and the digestion reaction was stopped with 1 mg/ml trypsin inhibitor (Sigma, dissolved in HBSS). The digestion solution contained (in mM) 4.2 NaHCO3, 25 HEPES, 137 NaCl, 5 KCl, and 7 Na2HPO4, and the pH was adjusted to 7.4 with NaOH. […]
For whole-cell patch-clamp recordings, the ACSF (artificial cerebrospinal fluid) extracellular solution contained (in mM) 141 NaCl, 2.5 KCl, 1.3 MgCl2, 2.4 CaCl2, 1.25 NaH2PO4 10 glucose and 10 HEPES (pH adjusted to 7.4 with NaOH), and the internal pipette solution contained (in mM) 140 potassium gluconate, 1 CaCl2, 10 EGTA, 2 MgCl2, 10 HEPES, and 5 Na2ATP (pH adjusted to 7.3 with KOH). […] Tetrodotoxin (TTX; 10 μM) dissolved in extracellular solution was applied with an ALA-VM4 valve manifold (Scientific Instruments), and washout from the iNs was assessed to determine whether the inward fast inactivating current was a sodium current. […]

fibroblasts = assay: Gene expression (RT-qPCR) after removing each small molecule from the cocktail; assay type: cell-based, mouse
Method: Total RNA was extracted using the Qiagen RNeasy Plus mini kit and was reverse transcribed into cDNA with TransScript One-step gDNA Removal and cDNA Synthesis SuperMix (TransGen Biotech). Real-time PCR was performed using a 7300 Real-Time PCR system (Applied Biosystems) with Power SYBR Green PCR Master Mix (2×).
Gene expression was analyzed using the ΔΔCt method. All the results were normalized to β-actin expression, and the values of uninduced fibroblasts were set to 1. Two replicates were used to determine the error bars.
Next, the roles of the small molecules in regulating these endogenous cell-fate-determining factors were determined.

mouse fibroblasts = assay: Transgene-free chemical induction of mouse fibroblasts into neuron-like cells (immunostaining counts); assay type: cell-based
Method: Secondary screening was performed to identify additional small molecules that facilitate neuronal reprogramming and maturation (shown schematically in FIG. 2A). In this screening, the effect of the additional small molecules was evaluated by observing neurite outgrowth. Desirable additional small molecules could induce the neurons with an improved neurite outgrowth as signs of enhanced reprogramming and maturation, ideally with highly complex morphologies. Improved neurite morphologies were evaluated in terms of enhanced neurite branches and neurite length. Further, characterization (e.g. TUJ1 immunostaining) was performed to confirm the observation. Fibroblasts were seeded into 12-well plates and each additional small molecule was added well by well into the culture medium containing the basic small-molecule cocktail (SM-cocktail+1 Screening), while SM-cocktail+DMSO was used as a negative control. […] TUJ1-positive cells with circular cell bodies and neurite outgrowth that is at least three-fold longer than the cell body were quantified. […] Cells were washed with PBS twice and then fixed with 4% paraformaldehyde for 20 min at room temperature. Afterward, the cells were washed with PBS twice and then blocked and permeabilized with 0.25% PBST (PBS plus 0.25% Triton X-100) and 3% donkey serum (DS) for 1 hour at 37° C. A PAP pen was used to outline the fields for staining. Diluted primary antibodies were added to the outlined fields, and the samples were incubated at 4° C. overnight. Next, the cells were washed three times with PBS and incubated in PBS plus 3% DS with diluted secondary antibodies for 1 hour at room temperature. The nuclei of the cells were stained with DAPI (Roche Molecular Biochemicals) if needed. […] The following secondary antibodies were used in this study: FITC and TRITC-conjugated secondary antibodies (Jackson ImmunoResearch) and Alexa Fluor 647-conjugated secondary antibodies (Life Technologies).

[1] = I-BET151 added to FICS cocktail (FICS+1 screening)

NC(CCCP(=O)(O)O)C(=O)O (stereo not shown) [AP5, 2-amino-5-phosphonovaleric acid]
effect of receptor antagonists on EPSCs of CiNs (CiNs): blocked

N#Cc1cc2c(cc1[N+](=O)[O-])=NC(=O)C(=O)N=2 [CNQX, 6-cyano-7-nitroquinoxaline-2,3-dione]
effect of receptor antagonists on EPSCs of CiNs (CiNs): blocked

COc1cc2c(cc1-c1c(C)noc1C)ncc1[nH]c(=O)n([C@H](C)c3ccccn3)c12 [I-BET151, 7-(3,5-dimethylisoxazol-4-yl)-8-methoxy-1-((R)-1-(pyridin-2-yl)ethyl)-1H-imidazo[4,5-c]quinolin-2(3H)-one]
role in suppression of the endogenous fibroblast-fate-determining program (fibroblasts): core small molecule to suppress the endogenous fibroblast-fate-determining program | TUJ1-positive cells yield (mouse fibroblasts; [1]): 90% | reprogramming rate and neurite outgrowth of the induced neurons (mouse fibroblasts; [1]): dramatically enhanced | toxicity to cells being induced (mouse fibroblasts; enhancing reprogramming with I-BET151): some toxicity

O=C(NC1CC1)c1cc(-c2cccs2)on1 [ISX9, N-cyclopropyl-5-(2-thienyl)-3-isoxazolecarboxamide]
role in activation of master neural / neuron-specific genes (fibroblasts; 48 h): necessary for activation of multiple neuron-specific genes; also recorded: essential to induce the master neural genes

NC(=O)c1ccc(-c2nc(-c3ccc4c(c3)OCO4)c(-c3ccccn3)[nH]2)cc1 [SB431542, 4-[4-(1,3-benzodioxol-5-yl)-5-(2-pyridinyl)-1H-imidazol-2-yl]benzamide]
survival and neurite outgrowth of the induced neurons (mouse fibroblasts; in FICSB cocktail): enhanced | need of the chemical for generating neurons (mouse fibroblasts; withdrawing individual chemical from FICSB cocktail): dispensable for generating neurons

C[C@@H](N)[C@H]1CC[C@H](C(=O)Nc2ccncc2)CC1.Cl.Cl [Y2632, (+)-(R)-trans-4-(1-aminoethyl)-N-(4-pyridyl)cyclohexanecarboxamide dihydrochloride]
survival rate and reprogramming (mouse fibroblasts; treatment from Day 0 to about day 4 together with I-BET151-containing cocktail): enhanced the survival rate and reprogramming
